Holding throughout (experiment): NCI-60 cell line screen, 48 h
Test [1] concerns ACHN renal.
For test [2], the system named is CCRF-CEM leukemia.
Test [3] deals with HL-60(TB) leukemia.
Test [4] concerns HOP-62 NSCLC.
Test [5] relates to IGROV1 ovarian.
Test [6] has as its system NCI-H23 lung.
Test [7] relates to NCI-H522 lung.
Test [8] has as its system OVCAR-3 ovarian.
For test [9], the system named is RXF 393 renal.
The subject of test [10] is U251 CNS.

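96-well plates; 48 h exposure; 5 concentrations. Endpoints by linear interpolation between flanking doses. Not reached: highest tested concentration assigned. The concentration for 50% growth inhibition is given as GI50. TGI: total growth inhibition.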 *1 amine or outer side, *2 acyl side, *3 side chain or, on linkers, in order; H or OH if unused. Where a SMILES comes first, the peptide text is derived from it. Bridges are numbered along the chain shown (N, C = ends). Roman numbers before positions name the chains, in order. [ ]: non-standard residue; d: D form. Actinocin(9to1) = Cc1c2oc3c(C)ccc(C(=O)[*:1])c3nc-2c(C(=O)[*:2])c(N)c1=O; Hyp = O=C(O)[CH]1C[CH](O)CN1; NMeV = CN[CH](C(=O)O)C(C)C; Sar = CNCC(=O)O Some results are limits rather than exact numbers.

As to `Cc1c(C)c(C)c(-n2c(=O)n(C)c(=O)n2-c2cc(C(C)(C)C)cc(C(C)(C)C)c2O)c(C)c1C`, the TGI in [1] is 24.8 µM; in test [2], 30.8 µM; in test [3], 11.4 µM; in test [4], 28 µM; in test [5], 22 µM; in test [6], 24 µM. The TGI in test [7] came to 14.6 µM; in test [8], 19.3 µM; in test [9] it was 11.6 µM; in test [10], 19.6 µM.

In the case of `O=[N+]([O-])/C=C(\CS(=O)(=O)c1ccccc1)c1ccc2c(c1)OCO2`, the TGI in [1] is over 100 µM; in test [2], over 100 µM; in test [3], over 100 µM; in test [4], over 100 µM; in test [5], over 100 µM; in [6], 36.3 µM. The TGI in [7], in test [8], in test [9] and in test [10] was over 100 µM throughout.

`Cc1cc(S(=O)(=O)Nc2nncn2-c2ccc(Cl)cc2)c(S)cc1Cl`: the TGI in test [1], in test [2], in [3], in test [4], in test [5] and in test [6] was over 10 µM each time. For the same compound, the TGI in [7], in [8], in test [9] and in test [10] was over 10 µM in each case.

Consider `O=c1c2cnccc2cc2c3ccccc3ccn12`, for which the TGI in test [1] was over 100 µM; in test [2], over 100 µM; in test [3], over 100 µM; in test [4] it was over 100 µM; in [5], 33.3 µM; in test [6] it was over 100 µM. Moreover, the TGI in [7], in test [8], in test [9] and in [10] was over 100 µM each time.

As for `CC1SC2(CCCCC2)N(NC(=O)CSc2nc3ccc(Cl)cc3c(=O)n2-c2ccccc2)C1=O` (stereo unspecified), the TGI in test [1] is 83.9 µM; in test [2], over 100 µM; in test [3] it was 51 µM; in test [4], 34.3 µM; in [5] it was 39.4 µM; in [6] it was 57.4 µM. Moreover, the TGI stood at 34.1 µM in test [7], 32.8 µM in test [8], 38.5 µM in test [9] and 31.6 µM in test [10].

Regarding `Cc1c2oc3c(C)ccc(C(=O)NC4C(=O)NC(C(C)C)C(=O)N5CC(O)CC5C(=O)N(C)CC(=O)N(C)C(C(C)C)C(=O)OC4C)c3nc-2c(C(=O)NC2C(=O)NC(C(C)C)C(=O)N3CC(O)CC3C(=O)N(C)CC(=O)N(C)C(C(C)C)C(=O)OC2C)c(N)c1=O` (stereo unspecified) (I: TV[Hyp][Sar][NMeV] / II: TV[Hyp][Sar][NMeV]; ester I:1-I:C, II:1-II:C; linker I:N-II:N via Actinocin(9to1); configuration not given here), the TGI in test [1], in test [2], in test [3], in [4], in test [5] and in test [6] was over 1 µM throughout. Further, the TGI in [7], in test [8], in test [9] and in test [10] was over 1 µM in each case.

Consider `CCSc1nc(=S)n(-c2ccccc2)c(C)c1C(C)=O`, for which the TGI in test [1], in test [2], in test [3], in [4], in test [5] and in [6] was over 100 µM throughout. For the same compound, the TGI in test [7], in test [8], in test [9] and in test [10] was over 100 µM each time.

For the compound `COc1c(Br)cc2ccccc2c1-c1c(OC)c(Br)cc2ccccc12`, the TGI in [1], in test [2], in [3], in test [4], in [5] and in [6] was over 100 µM throughout. Besides, the TGI in test [7], in test [8], in [9] and in test [10] was over 100 µM throughout.

With `CCCCSC1=N/C(=C\c2ccc(N(C)C)cc2)C(=O)N1`, the TGI in test [1], in test [2], in [3], in test [4], in test [5] and in [6] was over 100 µM each time. The TGI in test [7] was 73.9 µM; in test [8], 73.1 µM; in test [9], over 100 µM; in [10], 48.2 µM.

As to `C/C=C(\C)C(=O)O[C@@H]1CC(C)(C)CC2C3=CCC4[C@]56CC[C@](O)(OC5)C(C)(C)C6CC[C@@]4(C)C3(C)CC[C@]21C(=O)O` (stereo partly specified), the TGI in test [1], in [2], in [3], in [4], in test [5] and in [6] was over 100 µM in each case. Moreover, the TGI in [7], in test [8], in test [9] and in test [10] was over 100 µM throughout.

In the case of `CCOC(=O)/C=C(\C(=O)OCC)n1cc(Cl)c(=O)n(CC(=O)OCC)c1=O`, the TGI in test [1] is 3.02 µM; in test [2], 36.1 µM; in [3], 7.39 µM; in [4] it was 33.7 µM; in test [5], 25.9 µM; in test [6] it was 42.6 µM. For the same compound, the TGI in test [7] came out at 1.85 µM; in [8], 8.69 µM; in test [9], 3.77 µM; in test [10], 29.6 µM. The GI50 in [2] is 16.5 µM.

For the compound `COC(=O)c1c(C)cccc1C1CN=NC12Cc1cc(C)cc(C)c1C2=O` (stereo unspecified), the TGI was over 100 µM in test [1]; 63.8 µM in test [2]; 44.2 µM in [3]; over 100 µM in [4]; over 100 µM in test [5]; 78.4 µM in [6]. The TGI in [7] is 41.2 µM; in test [8], over 100 µM; in test [9], over 100 µM; in [10] it was over 100 µM.
